According to patent US20240059691A1 (KALVISTA PHARMACEUTICALS LIMITED, priority 2020, published 2024):
Like-named read-outs stand apart in the source and are kept apart here.

Columns and labels:
Human Factor XIIa = Human Factor XIIa (Homo sapiens (Human), UniProt P00748); experiment: Determination of FXIIa inhibition (fluorogenic substrate H-DPro-Phe-Arg-AFC, IC50 assay); assay type: biochemical; conditions: substrate H-DPro-Phe-Arg-AFC at Km, 25° C.; class scale A-G
Outline: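 Human FXIIa incubated at 25° C with fluorogenic substrate H-DPro-Phe-Arg-AFC at its Km concentration and varying compound concentrations. Fluorescence release monitored over 5 min at 25° C; linear rate expressed as % of uninhibited activity to derive IC50.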

Plasma Kallikrein = Plasma Kallikrein (Homo sapiens (Human), UniProt P03952); experiment: Determination of related protease inhibition: Plasma Kallikrein (fluorogenic substrate at Km); assay type: biochemical; conditions: 25° C., read-out: IC50 (human PKal)
Outline: (§1)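 Human enzymes incubated with varied inhibitor concentrations and fluorogenic substrate at Km. Fluorescence release followed over 5 min at 25 °C; linear rate expressed as % activity, IC50 as inhibitor concentration giving 50% inhibition of uninhibited enzyme.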

FXa = FXa (Homo sapiens (Human), UniProt P00742); experiment: Determination of related protease inhibition: FXa (fluorogenic substrate at Km); assay type: biochemical; conditions: 25° C.
Outline: as §1

Thrombin = Thrombin (Homo sapiens (Human), UniProt P00734); experiment: Determination of related protease inhibition: Thrombin (fluorogenic substrate at Km); assay type: biochemical; conditions: 25° C.
Outline: as §1

FXIa = FXIa (Homo sapiens (Human), UniProt P03951); experiment: Determination of related protease inhibition: FXIa (fixed substrate concentration of 100 μM); assay type: biochemical; conditions: 25° C.
Method: (§2) Determination of Related Protease Inhibition
(§3) In vitro inhibition of related proteases was determined using an ([…] assay based on standard literature methods (see e.g. Shori et al., Biochem. Pharmacol., 1992, 43, 1209; Bouckaert et al., European Journal of Medicinal Chemistry 110 (2016) 181). Human serine protease enzymes Plasma Kallikrein, KLK1, FXa, Plasmin, Thrombin and Trypsin were assayed for enzymatic activity using an appropriate fluorogenic substrate at Km concentration, FXIa at fixed substrate concentration of 100 μM, and various concentrations of the test compound. Protease activity was measured by monitoring the accumulation of liberated fluorescence from the substrate over […]. The linear rate of fluorescence increase per minute was expressed as percentage (%) activity. IC50 values were calculated as the concentration of inhibitor giving 50% inhibition of the uninhibited enzyme activity (100%).

[1] = Pharmacokinetics following a single intravenous dose and a single oral dose in male Sprague-Dawley rats (oral bioavailability, half-life); assay type: in vivo; conditions: rat, plasma, 10% DMSO/10% Cremophor EL/80% SWFI; for bioavailability: read-out: F % (oral bioavailability)
Method: Pharmacokinetic studies of the compounds in Table 16 were performed to assess the pharmacokinetics following a single intravenous dose and a single oral dose in male Sprague-Dawley rats. Two rats were given a single intravenous dose of 1 mL/kg of a nominal 1 mg/mL (1 mg/kg) composition of test compound in 10% DMSO/10% Cremophor EL/80% SWFI vehicle. Example 2191 was dosed at 1 mL/kg of a nominal 2 mg/mL (2 mg/kg) using the same vehicle.
Two rats were given a single oral dose of 5 mL/kg of a nominal 1 mg/mL (5 mg/kg) composition of test compound in 10% DMSO/10% Cremophor EL/80% SWFI vehicle. Example 2191 was dosed at 5 mL/kg of a nominal 2 mg/mL (10 mg/kg) using the same vehicle.
Following intravenous dosing, blood samples were collected over a period of 12 h. Sample times were 2, 5, 15 and 30 min then 1, 2, 4, 6, and 12 h. Following oral dosing, blood samples were collected over a period of 24 h. Sample times were 5, 15 and 30 min then 1, 2, 4, 6, 8, 12 and 24 h.
Following collection, blood samples were centrifuged and the plasma fraction analysed for concentration of test compound by LCMS. Oral bioavailability and half-life calculations from these studies were obtained using Phoenix WinNonlin (v8.0) and are shown below: […]

KLK1 = KLK1 (Homo sapiens (Human), UniProt P06870); experiment: Determination of related protease inhibition: KLK1 (fluorogenic substrate at Km); assay type: biochemical; conditions: 25° C.
Outline: as §1

Plasmin = Plasmin (Homo sapiens (Human), UniProt P00747); experiment: Determination of related protease inhibition: Plasmin (fluorogenic substrate at Km); assay type: biochemical; conditions: 25° C.
Method: as §2, §3

Trypsin = experiment: Determination of related protease inhibition: Trypsin (fluorogenic substrate at Km); assay type: biochemical, human; conditions: 25° C.
Method: as §2, §3

KLK1, sequence (P06870 25-262): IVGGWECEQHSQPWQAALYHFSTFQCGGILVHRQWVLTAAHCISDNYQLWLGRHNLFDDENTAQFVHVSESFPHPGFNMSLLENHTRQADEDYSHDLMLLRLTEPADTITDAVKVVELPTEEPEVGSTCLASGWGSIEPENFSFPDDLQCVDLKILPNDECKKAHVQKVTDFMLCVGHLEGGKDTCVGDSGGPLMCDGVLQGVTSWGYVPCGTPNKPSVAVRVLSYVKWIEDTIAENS
FXIa, sequence (P03951 388-625): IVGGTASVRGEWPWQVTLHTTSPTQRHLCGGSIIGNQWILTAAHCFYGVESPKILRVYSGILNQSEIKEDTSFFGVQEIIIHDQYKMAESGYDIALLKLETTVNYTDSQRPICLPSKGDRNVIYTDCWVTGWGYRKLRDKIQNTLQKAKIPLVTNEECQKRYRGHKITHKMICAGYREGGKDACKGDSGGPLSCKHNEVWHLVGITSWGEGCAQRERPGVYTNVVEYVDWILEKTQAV
FXIa, sequence (P03951 19-387 partner): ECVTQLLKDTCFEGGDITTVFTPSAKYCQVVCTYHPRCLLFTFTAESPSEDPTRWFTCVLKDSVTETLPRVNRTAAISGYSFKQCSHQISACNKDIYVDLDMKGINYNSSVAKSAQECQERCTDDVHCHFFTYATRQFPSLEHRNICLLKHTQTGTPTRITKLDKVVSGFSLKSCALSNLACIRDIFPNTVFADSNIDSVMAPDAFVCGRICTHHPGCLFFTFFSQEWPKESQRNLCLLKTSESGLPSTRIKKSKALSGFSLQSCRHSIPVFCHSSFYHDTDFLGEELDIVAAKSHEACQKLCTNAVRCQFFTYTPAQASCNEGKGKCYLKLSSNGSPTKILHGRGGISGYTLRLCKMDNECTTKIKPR
Human Factor XIIa, sequence (P00748 373-615): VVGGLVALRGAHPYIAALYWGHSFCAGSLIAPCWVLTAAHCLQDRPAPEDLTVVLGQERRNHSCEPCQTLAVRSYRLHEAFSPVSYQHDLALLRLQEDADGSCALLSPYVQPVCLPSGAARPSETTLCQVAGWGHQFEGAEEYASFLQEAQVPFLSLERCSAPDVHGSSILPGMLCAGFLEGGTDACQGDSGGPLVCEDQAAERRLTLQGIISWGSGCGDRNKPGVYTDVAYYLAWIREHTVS
FXa, sequence (P00742 235-488): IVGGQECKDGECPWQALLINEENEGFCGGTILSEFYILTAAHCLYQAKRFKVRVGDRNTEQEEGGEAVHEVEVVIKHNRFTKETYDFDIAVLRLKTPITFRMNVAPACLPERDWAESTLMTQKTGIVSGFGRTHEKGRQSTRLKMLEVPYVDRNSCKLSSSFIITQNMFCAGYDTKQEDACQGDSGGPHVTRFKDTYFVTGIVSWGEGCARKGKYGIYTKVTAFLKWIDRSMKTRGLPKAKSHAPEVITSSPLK
FXa, sequence (P00742 41-179 partner): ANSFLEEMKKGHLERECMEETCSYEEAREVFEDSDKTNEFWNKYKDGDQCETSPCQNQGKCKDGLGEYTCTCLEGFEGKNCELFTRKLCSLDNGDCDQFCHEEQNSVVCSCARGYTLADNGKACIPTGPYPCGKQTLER
Plasmin, sequence (P00747 581-810): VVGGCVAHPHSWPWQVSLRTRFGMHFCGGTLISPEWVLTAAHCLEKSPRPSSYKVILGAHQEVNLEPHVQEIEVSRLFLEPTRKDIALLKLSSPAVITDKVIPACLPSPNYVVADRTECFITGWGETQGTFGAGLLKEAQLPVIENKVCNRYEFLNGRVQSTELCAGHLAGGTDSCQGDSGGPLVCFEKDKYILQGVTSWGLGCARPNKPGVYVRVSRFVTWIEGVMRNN
Plasmin, sequence (P00747 97-580 partner): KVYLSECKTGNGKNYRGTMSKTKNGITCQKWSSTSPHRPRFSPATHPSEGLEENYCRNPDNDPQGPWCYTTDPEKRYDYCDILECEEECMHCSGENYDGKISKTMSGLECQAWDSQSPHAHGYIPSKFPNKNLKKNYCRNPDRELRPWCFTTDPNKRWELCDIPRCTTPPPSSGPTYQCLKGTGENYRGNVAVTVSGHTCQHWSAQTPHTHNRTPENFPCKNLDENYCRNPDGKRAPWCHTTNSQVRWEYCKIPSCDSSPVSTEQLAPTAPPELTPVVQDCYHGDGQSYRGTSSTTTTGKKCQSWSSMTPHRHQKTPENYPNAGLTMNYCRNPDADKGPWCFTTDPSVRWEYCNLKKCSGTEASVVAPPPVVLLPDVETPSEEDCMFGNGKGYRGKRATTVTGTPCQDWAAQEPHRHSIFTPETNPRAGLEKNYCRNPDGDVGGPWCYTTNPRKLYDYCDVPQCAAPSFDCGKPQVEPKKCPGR
Plasma Kallikrein, sequence (P03952 391-638): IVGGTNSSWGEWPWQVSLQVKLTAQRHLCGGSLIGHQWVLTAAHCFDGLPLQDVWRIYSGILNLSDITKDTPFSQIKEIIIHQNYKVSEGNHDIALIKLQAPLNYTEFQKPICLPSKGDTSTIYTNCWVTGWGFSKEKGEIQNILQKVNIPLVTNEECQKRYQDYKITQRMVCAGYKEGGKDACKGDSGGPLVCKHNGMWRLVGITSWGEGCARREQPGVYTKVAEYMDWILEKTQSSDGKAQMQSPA
Plasma Kallikrein, sequence (P03952 20-390 partner): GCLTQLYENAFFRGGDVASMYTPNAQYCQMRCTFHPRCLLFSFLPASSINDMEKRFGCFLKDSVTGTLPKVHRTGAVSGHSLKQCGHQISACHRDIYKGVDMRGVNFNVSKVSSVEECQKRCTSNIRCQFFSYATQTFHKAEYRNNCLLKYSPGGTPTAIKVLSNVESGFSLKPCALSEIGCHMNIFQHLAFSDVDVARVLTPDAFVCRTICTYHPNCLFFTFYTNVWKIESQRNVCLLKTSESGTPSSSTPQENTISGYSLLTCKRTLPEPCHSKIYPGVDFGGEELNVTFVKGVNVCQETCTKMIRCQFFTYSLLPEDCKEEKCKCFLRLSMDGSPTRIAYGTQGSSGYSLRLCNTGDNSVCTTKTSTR

Row | SMILES | IC50 (Human Factor XIIa) [µM] | IC50 (Plasma Kallikrein) [µM] | IC50 (FXa) [µM] | IC50 (Thrombin) [µM] | IC50 (FXIa) [µM] | half-life [1] [h] | bioavailability [1] [%] | bioavailability ([1]; 5 mg/kg) [%] | IC50 (KLK1) [µM] | IC50 (Plasmin) [µM] | IC50 (Trypsin) [µM]
1 | CN1CCC(COc2cc(CNc3cccc4c(N)nccc34)ccn2)CC1 [Example 4260, N5-((2-((1-methylpiperidin-4-yl)methoxy)pyridin-4-yl)methyl)isoquinoline-1,5-diamine] | 0.1 to 0.3 | > 20 | > 20 | > 20 | > 20 | 9.98 | 13.6 |  |  |  | 
2 | CN1CCC(OCc2ccc(CNc3cccc4c(N)nccc34)c(F)c2)CC1 [Example 2197, N5-(2-fluoro-4-(((1-methylpiperidin-4-yl)oxy)methyl)benzyl)isoquinoline-1,5-diamine] | 0.01 to 0.1 | > 20 | > 20 | > 20 | > 20 | 6.87 |  | 26.6 |  |  | 
3 | Cc1cc(N2CCn3c(nnc3C(F)(F)F)C2)ncc1CNc1cccc2c(N)nccc12 [Example 1282, N5-((4-Methyl-6-(3-(trifluoromethyl)-5,6-dihydro-[1,2,4]triazolo[4,3-a]pyrazin-7(8H)-yl)pyridin-3-yl)methyl)isoquinoline-1,5-diamine] | 0.01 to 0.1 | > 40 | > 4 |  |  | 2.34 | 53.2 |  | 3 to 10 |  | 
4 | CN1CCC(Oc2ccc(CNc3ccc4c(N)nccc4c3)cn2)CC1 [Example 1001, 6-N-({6-[(1-methylpiperidin-4-yl)oxy]pyridin-3-yl}methyl)isoquinoline-1,6-diamine] | 0.3 to 1 | 1 to 3 | 1 to 3 | 1 to 3 |  |  |  |  |  | > 40 | 10 to 40
5 | CN1CCC(OCc2ccc(CNc3ccc4c(N)nccc4c3)c(F)c2)CC1 [Example 2191, N6-(2-fluoro-4-(((1-methylpiperidin-4-yl)oxy)methyl)benzyl)isoquinoline-1,6-diamine] | 0.1 to 0.3 | 10 to 40 | 10 to 40 | > 40 | > 40 | 9.02 | 22.8 |  |  |  | 
6 | FC(F)c1nnc2n1CCN(c1ccc(CNc3ccnc4[nH]c(Cl)cc34)cn1)C2 [Example 1277, 2-chloro-N-((6-(3-(difluoromethyl)-5,6-dihydro-[1,2,4]triazolo[4,3-a]pyrazin-7(8H)-yl)pyridin-3-yl)methyl)-1H-pyrrolo[2,3-b]pyridin-4-amine] | 0.3 to 1 | > 40 | > 40 | 10 to 40 |  | 1.35 | 25 |  | 10 to 40 |  | 
7 | Nc1ncc(Cl)c2cc(NCc3ccnc(N4CCn5ccnc5C4)c3)ccc12 [Example 4437, 4-chloro-6-N-[(2-{5H,6H,8H-imidazo[1,2-a]pyrazin-7-yl}pyridin-4-yl)methyl]isoquinoline-1,6-diamine] | 0.1 to 0.3 | > 40 | 3 to 10 | 10 to 40 | > 40 |  |  |  | 3 to 10 | > 40 | > 40
8 | CN1CCC(COc2cc(CNc3ccc4cnccc4c3)ccn2)CC1 [Example 4262, N-({2-[(1-methylpiperidin-4-yl)methoxy]pyridin-4-yl}methyl)isoquinolin-6-amine] | 3 to 10 | 10 to 40 | 10 to 40 | > 40 | > 40 |  |  |  | 10 to 40 | > 40 | > 40
9 | CN1CCC(OCc2ccc(CNc3cccc4c(N)nccc34)cc2)CC1 [Example 2186, N5-(4-(((1-methylpiperidin-4-yl)oxy)methyl)benzyl)isoquinoline-1,5-diamine] | 0.1 to 0.3 | 10 to 40 | 10 to 40 | > 40 | > 40 | 4.39 | 15.8 |  |  |  | 
10 | CN1CCC(CNc2ccc(CNc3ccnc4[nH]c(Cl)cc34)cn2)CC1 [Example 1243, 2-chloro-N-((6-(((1-methylpiperidin-4-yl)methyl)amino)pyridin-3-yl)methyl)-1H-pyrrolo [2,3-b]pyridin-4-amine] | 0.01 to 0.1 | > 40 | 10 to 40 | > 40 |  | 8.76 | 4.9 |  | 10 to 40 |  | 
11 | Nc1nccc2c(NCc3ccc(N4CCn5c(nnc5C(F)F)C4)nc3)cccc12 [Example 1274, N5-((6-(3-(Difluoromethyl)-5,6-dihydro-[1,2,4]triazolo[4,3-a]pyrazin-7(8H)-yl)pyridin-3-yl)methyl)isoquinoline-1,5-diamine] | 0.3 to 1 | > 40 | > 40 | 10 to 40 |  | 2.52 | 32.1 |  | 1 to 3 |  | 
12 | Nc1nccc2c(NCc3ccc(OCC4CCn5ccnc5C4)nc3)cccc12 (single isomer, unassigned) [Example 1029, (R*)-N5-((6-((5,6,7,8-tetrahydroimidazo[1,2-a]pyridin-7-yl)methoxy)pyridin-3-yl)methyl)isoquinoline-1,5-diamine] | 0.1 to 0.3 | 10 to 40 | 10 to 40 | 10 to 40 |  | 6.18 | 9.7 |  | 3 to 10 |  | 
13 | CN1CCC(CNc2ccc(CNc3ccnc4[nH]ccc34)cn2)CC1 [Example 1197, N-((6-(((1-methylpiperidin-4-yl)methyl)amino)pyridin-3-yl)methyl)-1H-pyrrolo[2,3-b]pyridin-4-amine] | 1 to 3 | > 40 | > 40 | > 40 | > 40 |  |  |  | > 40 | > 40 | > 40
14 | CN1CCC(COc2cc(CNc3cccc4[nH]nc(Cl)c34)ccn2)CC1 [Example 4454, 3-chloro-N-((2-((1-methylpiperidin-4-yl)methoxy)pyridin-4-yl)methyl)-1H-indazol-4-amine] |  | > 100 | > 40 | > 40 | > 40 |  |  |  | 1 to 3 | > 40 | > 40
15 | CN1CCC(Oc2cc(CNc3ccc4c(N)nccc4c3)ccn2)CC1 [Example 4259, N6-((2-((1-methylpiperidin-4-yl)oxy)pyridin-4-yl)methyl)isoquinoline-1,6-diamine] | 0.3 to 1 | 10 to 40 | 3 to 10 | 1 to 3 |  |  |  |  | 10 to 40 | > 40 | 
16 | CN1CCC(Oc2ccc(CNc3cccc4c(N)nccc34)cc2)CC1 [Example 1002, 5-N-({4-[(1-methylpiperidin-4-yl)oxy]phenyl}methyl)isoquinoline-1,5-diamine] | 0.1 to 0.3 |  | 10 to 40 | > 40 |  |  |  |  |  | > 40 | > 40
17 | Cc1cc(N2CCn3c(nnc3C(F)(F)F)C2C)ncc1CNc1cccc2c(N)nccc12 (single isomer, unassigned) [Example 1305, (S*)-N5-((4-methyl-6-(8-methyl-3-(trifluoromethyl)-5,6-dihydro-[1,2,4]triazolo[4,3-a]pyrazin-7(8H)-yl)pyridin-3-yl)methyl)isoquinoline-1,5-diamine] | 0.01 to 0.1 |  |  |  |  | 4.04 | 79.4 |  | > 4 |  | 
